For the test, the target named is NACHT, LRR and PYD domains-containing protein 3 (Homo sapiens, UniProt Q96P20). Nature of the test: Inhibition of NLRP3 inflammasome activation in PMA-differentiated human THP-1 cells assessed as reduction in IL-1beta secretion pre-stimulated with PMA for 24 hrs followed by compound addition and measured after 30 mins by ELISA. Type of test: cell-based.

Each structure is given as a SMILES string.

Sequence of NACHT, LRR and PYD domains-containing protein 3 (Q96P20 whole entry, the tested form may be a part): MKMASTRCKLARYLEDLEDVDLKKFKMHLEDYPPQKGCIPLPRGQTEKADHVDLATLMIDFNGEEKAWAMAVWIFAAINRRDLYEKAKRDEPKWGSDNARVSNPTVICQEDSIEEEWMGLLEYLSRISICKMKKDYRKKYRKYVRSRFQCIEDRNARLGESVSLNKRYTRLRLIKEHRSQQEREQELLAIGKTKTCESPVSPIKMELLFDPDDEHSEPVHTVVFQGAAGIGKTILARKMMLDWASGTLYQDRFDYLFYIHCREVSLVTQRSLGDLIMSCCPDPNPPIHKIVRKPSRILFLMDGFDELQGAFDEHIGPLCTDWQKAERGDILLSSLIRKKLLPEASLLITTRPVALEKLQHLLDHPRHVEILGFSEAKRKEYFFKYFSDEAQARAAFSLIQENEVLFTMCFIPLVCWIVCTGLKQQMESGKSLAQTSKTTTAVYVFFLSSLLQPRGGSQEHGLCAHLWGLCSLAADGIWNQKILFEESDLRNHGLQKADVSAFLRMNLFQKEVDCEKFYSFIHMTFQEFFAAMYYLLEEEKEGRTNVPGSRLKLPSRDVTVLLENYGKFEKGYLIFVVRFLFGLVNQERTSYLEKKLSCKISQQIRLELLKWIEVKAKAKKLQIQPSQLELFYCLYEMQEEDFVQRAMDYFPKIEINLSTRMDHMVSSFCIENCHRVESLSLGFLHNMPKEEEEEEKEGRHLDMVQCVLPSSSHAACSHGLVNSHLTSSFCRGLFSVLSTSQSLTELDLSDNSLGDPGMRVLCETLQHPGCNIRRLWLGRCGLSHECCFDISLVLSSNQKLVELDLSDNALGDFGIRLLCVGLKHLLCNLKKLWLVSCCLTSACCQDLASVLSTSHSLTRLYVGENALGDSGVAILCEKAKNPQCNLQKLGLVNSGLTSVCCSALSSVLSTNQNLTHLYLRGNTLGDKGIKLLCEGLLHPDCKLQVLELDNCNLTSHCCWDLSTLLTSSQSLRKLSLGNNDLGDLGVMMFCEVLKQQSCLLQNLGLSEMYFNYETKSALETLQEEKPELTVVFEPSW

As to `O=C(O)CCCCCN1C(=O)/C(=C/c2c[nH]c3ccccc23)SC1=S`, the IC50 came to 13.9 µM.

A word on the IC50: it is the point on the concentration scale where inhibition reaches its midpoint.

Values taken from ChEMBL document CHEMBL5634101, “Discovery of NLRP3 inhibitors using machine learning: Identification of a hit compound to treat NLRP3 activation-driven diseases” (Eur J Med Chem, 2023).
